Patent publication US20220325242A1, “IDH2 INHIBITION FOR PRODUCING T-CELLS AND B-CELLS WITH A MEMORY PHENOTYPE” (Universite de Lausanne, priority 2019, published 2022)

What was measured:
[1] = system: transferred CD8+ CD45.1+ OT1 T-cells; assay: Phenotype of adoptively transferred OT1 CD8+ T-cells in blood of B16-OVA tumor-bearing mice; format: in vivo, mouse
Text: Antibody panel to determine the frequency and differentiation and activation state of adoptively transferred T-cells in the blood (see Example 6): CD8-PE-texas-Red, CD45.1-Pacific blue, CD45.2-FITC, CD127-PE, KLRG1-PE-Cy7, CD62L-APC, CD44-APC-Cy7, and CD27-PerCP-Cy5.5.
(§1) Example 5. In vivo tumor model to characterize the phenotype and efficacy of cultured CD8+ T-cells upon adoptive cell transfer. An in vivo tumor model was used to determine the efficacy of in vitro cultured CD8+ T-cells treated with an IDH2 inhibitor in eliminating cancer cells (FIG. 10). B16-OVA melanoma cells (see Example 1) were cultured in DMEM (GIBCO) with 10% FCS and 1% P/S before their subcutaneous injection into the mouse flank. Each mouse received 100′000 cells in a volume of 200 μl of PBS. 6 days after B16-OVA cell injection, tumors were measured, mice were randomized and lymphodepleted by irradiation (5 Gray). 7 days after B16-Ova cell injection, mice were adoptively transferred with activated CD45.1^+ OT-1 splenocytes. The CD45.1^+ OT-1 splenocytes had been cultured in vitro for 7 days as described in Example 2, wherein the IDH2 inhibitor was AG221, collected and purified on a Ficoll gradient to separate dead and live splenocytes. Live splenocytes, almost exclusively consisting of CD8+ T-cells (about 98%), were counted with Trypan blue stain 0.4%. 100′000 live splenocytes were transferred into CD45.2^+ host mice by tail vein injection.
(§2) Following the adoptive cell transfer (ACT), mice received a vaccination of CpG (50 μg/mouse) and N4 Ova peptide (10 μg/mouse) diluted in PBS to obtain a total volume of 100 μl/mouse, injected subcutaneously at the tail base to further stimulate the transferred cells. An additional no-ACT control group received only a PBS injection (neither cells, CpG nor peptide). Tumors were measured every 2 days with a digital caliper and the tumor volume was calculated according to the formula: V=π×[d2×D]/6, wherein d is the smallest tumor axis and D is the largest tumor axis.
Example 6. Maintenance of the CD8+ T-cell memory phenotype in vivo. Blood samples were collected at day 14 and day 18 post tumor engraftment (see Example 5). […] Transferred CD8+ T-cells were CD8^+ and CD45.1^+. Among those, MPECs were KLRG1^low and CD127^+, SLECs were KLRG1^high and CD127^−, and TCM were CD44^+ and CD62L^+.

B16-OVA melanoma = assay: Tumor growth of B16-OVA tumors after adoptive transfer of inhibitor-treated OT1 T-cells; format: in vivo, mouse; details: mice adoptively transferred with T-cells treated in vitro
Method: as §1, with “The CD45.1^+ OT-1 splenocytes had been cultured in vitro for 7 days as described in Example 2, wherein the IDH2 inhibitor was AG221, collected and purified on a Ficoll gradient to separate dead and live splenocytes.” left out, “100′000 live splenocytes were transferred into CD45.2^+ host mice by tail vein injection.” left out
as §2, with “An additional no-ACT control group received only a PBS injection (neither cells, CpG nor peptide).” left out

[2] = system: Sell (CD62L) mRNA in OT1 cells; assay: Sell (CD62L) gene expression by quantitative real time RT-PCR in OT1 cells; format: cell-based, mouse
Method: Example 2. In vitro culture of splenocytes comprising CD8+ T-cells. OT1 splenocytes (as described in Example 1) were cultured for 3 days at a concentration of 10^6 cells per mL in RPMI medium (Gibco 61870-01) supplemented with 10% FCS, (Gibco 10270-106), 1% Penicillin/Streptomycin (P/S; Gibco 15070-063), 0.1% 13-mercaptoethanol, 1% HEPES (Gibco 15630-080), 1× Non-essential amino acids (Gibco 11140-035), 1% L-glutamine (Gibco 25030-081), 1 mM Sodium Pyruvate (Gibco 11360-039), 100 U/m1 hIL-2 (Glaxo-IMB) and 1 μg/ml ovalbumin N4 peptide (SIINFEKL). To evaluate the effects of IDH2 inhibition on T-cell differentiation, 5 μM of a small molecule IDH2 inhibitor (AG221 or AGI6780) or a DMSO solvent control was added during this 3-day culture period. […] At day 3 and day 7, the activation and differentiation state of CD8+ T-cells was determined by gene expression analysis, flow cytometry and extracellular metabolic flux analyses (see Example 3).
a) Gene expression analysis by quantitative real time RT-PCR RNA was isolated with the RNeasy mini kit (Qiagen) and cDNA was generated by reverse transcription (Applied Biosystems). […] Gene expression was calculated relative to […] (FW primer: 5′ aga ctg ata cat acg cct gca g 3′, RV primer: 5′ gca ggt tca aat gaa tct tca g 3′).

[3] = system: human CD4 T cells (CD3-positive/CD8-negative); assay: CD62L expression in whole culture and in CD4 T cells, human culture (FIG. 16); format: cell-based
Text: FIG. 16: Phenotypic analysis of human bulk PBMC at day 11 post in vitro activation. (A,B) Quantification of flow cytometry analysis at day 11 post-activation showing the percentage of CD62L+ CD8 T cells in the CD3/CD8 double positive T cell population (A) or in all living cells (B) from a culture of PBMCs treated with AKTi (MK2206), IDH2i (AG221) or DMSO control. (C,D) Quantification of flow cytometry analysis at day 11 post-activation showing the percentage of CD62L+ CD4 T cells in the CD3-positive/CD8-negative T cell population (C) or in all living cells (D). (E,F) Quantification of flow cytometry analysis at day 11 post-activation showing the percentage of CD8 T cells (E, identified as CD3/CD8 double positive) and CD4 T cells (F, identified as CD3-positive/CD8-negative) in all living cells of a culture of PBMCs treated with AKTi (MK2206), IDH2i (AG221) or DMSO control. *p<0.05, compared to DMSO Graphs show mean±SEM.
The previously obtained data has undergone additional analyses, in order to obtain more insight in CD62L expression in the whole culture as well as in CD4 T cells. In the human figure A and B, we now clearly made the distinction between CD62L expression as percentage out of CD8 T cells (FIG. 16A) or out of all living cells in the culture (FIG. 16 B).
As mentioned before, about 98% of the cells in culture on day 11 are CD3-positive. Since CD3 is exclusively expressed on CD4 and CD8 T cells, we can deduct that all CD3-positive, CD8-negative must be CD4 T cells. When analyzing the CD3-pos/CD8-neg population we observed that CD62L expression is induced upon AG221 treatment, both when expressed as percentage out of CD4 T cells (FIG. 16 C) and as percentage out of total living cells (FIG. 16 D). […] This can be explained by our observation that AKT inhibition favors CD8 T cell differentiation over CD4 T cell differentiation. This ratio remains unchanged upon AG221-treatment, as compared to DMSO control (FIG. 16 E and F).

[4] = day 14, compared to DMSO control

SMILES: CC(C)(O)CNc1nc(Nc2ccnc(C(F)(F)F)c2)nc(-c2cccc(C(F)(F)F)n2)n1 [AG221, 2-methyl-1-[[4-[6-(trifluoromethyl)pyridin-2-yl]-6-[[2-(trifluoromethyl)pyridin-4-yl]amino]-1,3,5-triazin-2-yl]amino]propan-2-ol]
- frequency of transferred T-cells ([1]; day 14 (day 7 post ACT), cells treated in vitro before ACT, versus DMSO): significantly higher
- proportion of central memory T cells (TCM) within transferred CD8+ T-cells [1, 4]: significantly higher
- proportion of memory precursor effector cells (MPECs) within transferred CD8+ T-cells [1, 4]: significantly higher
- proportion of short-lived effector cells (SLECs) within transferred CD8+ T-cells [1, 4]: significantly lower
- tumor burden, in particular tumor growth (B16-OVA melanoma): significantly reduced
- Sell (CD62L) mRNA expression increase ([2]; day 3, 5 μM, versus DMSO): 3 fold
- Sell (CD62L) mRNA expression increase ([2]; day 7, 5 μM day 0-3, versus DMSO): 7 fold
- CD8 T cell versus CD4 T cell differentiation (ratio in all living cells) ([3]; day 11, compared to DMSO control): unchanged
- CD62L expression in CD3-pos/CD8-neg population, as percentage out of CD4 T cells ([3]; day 11, versus DMSO): induced
- CD62L+ CD4 T cells as percentage out of total living cells ([3]; day 11, versus DMSO): induced
